This assay has as its target T1, Recombinant human cathepsin A (Homo sapiens, UniProt P10619).
T1 construct: Recombinant human cathepsin A (residues 29-480, with a C-terminal 10-His tag); 10-His (C); purchased R&D Systems 1049-SE
T1 sequence (P10619 29-312 limits assumed): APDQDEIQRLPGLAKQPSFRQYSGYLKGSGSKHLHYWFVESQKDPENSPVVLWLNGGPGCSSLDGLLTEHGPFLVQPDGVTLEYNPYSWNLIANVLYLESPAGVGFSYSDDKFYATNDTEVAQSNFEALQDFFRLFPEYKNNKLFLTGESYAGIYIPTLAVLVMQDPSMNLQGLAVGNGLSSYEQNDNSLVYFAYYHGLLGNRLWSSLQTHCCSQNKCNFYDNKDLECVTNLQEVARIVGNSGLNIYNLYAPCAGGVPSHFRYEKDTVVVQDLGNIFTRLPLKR
T1 sequence (P10619 327-480 limits assumed): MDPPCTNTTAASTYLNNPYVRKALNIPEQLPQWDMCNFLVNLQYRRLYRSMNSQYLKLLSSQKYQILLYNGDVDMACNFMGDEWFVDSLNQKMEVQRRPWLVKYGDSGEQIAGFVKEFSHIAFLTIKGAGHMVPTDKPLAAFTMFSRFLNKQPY
Put plainly: Cathepsin A inhibitory activity. It counts as biochemical. Particulars: read-out: Activity (2): Cathepsin A inhibitory activity (IC50 class). The essentials: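 Human cathepsin A (res. 29-480, C-His10) pre-activated with cathepsin L (MES pH 6.0, DTT, 15 min, 37 °C; quenched with 10 μM E-64). Enzyme (833 ng/ml) preincubated 15 min RT with compound in MES pH 5.5/DTT, then 2 μM Bodipy FL-bradykinin for 15 min RT. Capillary electrophoresis product/substrate peak areas; IC50 from % inhibition.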

`Cc1ccccc1[C@H](CC(=O)O)NC(=O)c1cc(OCc2ccccn2)n(-c2ccccc2F)n1` [Example 640]: the IC50 was less than 100 nM.

For `Cc1ccccc1[C@H](CC(=O)O)NC(=O)c1cc(OCCCF)n(-c2ccccc2F)n1` [Example 641], the IC50 is less than 100 nM.

Regarding `Cc1ccccc1[C@H](CC(=O)O)NC(=O)c1cc(OCC2CCCO2)n(-c2ccccc2F)n1` (stereo partly drawn) [Example 642], the IC50 is less than 100 nM.

As for `Cc1cc(COc2cc(C(=O)N[C@@H](CC(=O)O)c3ccccc3C)nn2-c2ccccc2F)on1` [Example 643], the IC50 is less than 100 nM.

With `Cc1ccccc1[C@H](CC(=O)O)NC(=O)c1cc(OCc2c(F)cccc2F)n(-c2ccccc2F)n1` [Example 644], the IC50 is less than 100 nM.

As to `Cc1ccccc1[C@H](CC(=O)O)NC(=O)c1cc(OCC2CC2(F)F)n(-c2ccccc2F)n1` (stereo partly drawn) [Example 645], the IC50 was less than 100 nM.

For `Cc1nc(COc2cc(C(=O)N[C@@H](CC(=O)O)c3ccccc3C)nn2-c2ccccc2F)cs1` [Example 646], the IC50 was less than 100 nM.

As for `Cc1ccccc1[C@H](CC(=O)O)NC(=O)c1cc(OCc2ccon2)n(-c2ccccc2F)n1` [Example 647], the IC50 is less than 100 nM.

As to `Cc1ccccc1[C@H](CC(=O)O)NC(=O)c1cc(OC2CCC2)n(-c2ccccc2F)n1` [Example 648], the IC50 was less than 100 nM.

Consider `Cc1ccccc1[C@H](CC(=O)O)NC(=O)c1cc(OCC2CCC2)n(-c2ccccc2F)n1` [Example 649], for which the IC50 is less than 100 nM.

Take `Cc1ccccc1[C@H](CC(=O)O)NC(=O)c1cc(OCC2CCOC2)n(-c2ccccc2F)n1` (stereo partly drawn) [Example 650]: the IC50 was less than 100 nM.

Consider `Cc1ccccc1[C@H](CC(=O)O)NC(=O)c1cc(OCc2ccccc2)n(-c2ccccc2F)n1` [Example 651], for which the IC50 was less than 100 nM.

On to `Cc1ccccc1[C@H](CC(=O)O)NC(=O)c1cc(OC[C@H]2CCC(=O)N2)n(-c2ccccc2F)n1` [Example 652], for which the IC50 is less than 100 nM.

With `Cc1ccccc1[C@H](CC(=O)O)NC(=O)c1cc(OCC2CCCCO2)n(-c2ccccc2F)n1` (stereo partly drawn) [Example 653], the IC50 is less than 100 nM.

For the compound `Cc1ccccc1[C@H](CC(=O)O)NC(=O)c1cc(OC[C@@H]2CCC(=O)N2)n(-c2ccccc2F)n1` [Example 654], the half-inhibitory concentration (IC50) was less than 100 nM.

Take `COc1cccc(COc2cc(C(=O)N[C@@H](CC(=O)O)c3ccccc3C)nn2-c2ccccc2F)c1` [Example 655]: the half-maximal inhibitory concentration (IC50) was less than 100 nM.

As to `Cc1cc(COc2cc(C(=O)N[C@@H](CC(=O)O)c3ccccc3C)nn2-c2ccccc2F)no1` [Example 657], the IC50 was less than 100 nM.

With `Cc1ccccc1[C@H](CC(=O)O)NC(=O)c1cc(OCc2ccno2)n(-c2ccccc2F)n1` [Example 658], the IC50 is less than 100 nM.

Consider `Cc1ccccc1[C@H](CC(=O)O)NC(=O)c1cc(OCCC(C)(C)C)n(-c2ccccc2F)n1` [Example 659], for which the IC50 was less than 100 nM.

With `CCCCCCOc1cc(C(=O)N[C@@H](CC(=O)O)c2ccccc2C)nn1-c1ccccc1F` [Example 660], the IC50 is less than 100 nM.

In the case of `CCOc1cc(C(=O)N[C@@H](CC(=O)O)c2ccccc2C)nn1-c1ccccc1F` [Example 662], the 50% inhibitory concentration (IC50) is less than 100 nM.

`Cc1ccccc1[C@H](CC(=O)O)NC(=O)c1cc(OCC2(C)COC2)n(-c2ccccc2F)n1` [Example 663]: the IC50 is less than 100 nM.

Take `COc1cc(C(=O)NC(CC(=O)O)c2cccc(F)c2C)nn1-c1ccccc1F` (stereo not drawn) [Example 664]: the IC50 was less than 100 nM.

For the compound `COc1cc(C(=O)N[C@@H](CC(=O)O)c2ccccc2)nn1-c1ccccc1F` [Example 665], the half-maximal inhibitory concentration (IC50) was less than 100 nM.

Take `COc1cc(C(=O)NC(CC(=O)O)c2ccc(C)cc2C)nn1-c1ccccc1F` (stereo not drawn) [Example 666]: the IC50 was less than 100 nM.

Regarding `COc1ccccc1[C@H](CC(=O)O)NC(=O)c1cc(OC)n(-c2ccccc2F)n1` [Example 667], the IC50 lay within 100 to 1000 nM.

In the case of `COc1cc(C(=O)N[C@@H](CC(=O)O)c2ccc(C#N)cc2)nn1-c1ccccc1F` [Example 668], the IC50 is 100 to 1000 nM.

Take `COc1cccc([C@H](CC(=O)O)NC(=O)c2cc(OC)n(-c3ccccc3F)n2)c1` [Example 669]: the concentration for half-maximal inhibition (IC50) lay within 100 to 1000 nM.

On to `COc1cc(C(=O)N[C@@H](CC(=O)O)c2cccc(C)c2)nn1-c1ccccc1F` [Example 670], for which the IC50 was less than 100 nM.

In the case of `COc1cc(C(=O)N[C@@H](CC(=O)O)c2ccc(Cl)cc2)nn1-c1ccccc1F` [Example 671], the IC50 is less than 100 nM.

Regarding `COc1ccc(C(CC(=O)O)NC(=O)c2cc(OC)n(-c3ccccc3F)n2)c(C)c1` (stereo not drawn) [Example 672, 3-{[1-(2-Fluoro-phenyl)-5-methoxy-1H-pyrazole-3-carbonyl]-amino}-3-(4-methoxy-2-methyl-phenyl)-propionic acid], the IC50 is less than 100 nM.

As to `COc1cc(C(=O)N[C@@H](CC(=O)O)c2ccc(Cl)cc2Cl)nn1-c1ccccc1F` [Example 673], the IC50 was less than 100 nM.

Take `COc1cc(C(=O)N[C@@H](CC(=O)O)c2ccc(C(F)(F)F)cc2)nn1-c1ccccc1F` [Example 674]: the IC50 is less than 100 nM.

Regarding `COc1cc(C(=O)N[C@@H](CC(=O)O)c2ccc(C)cc2)nn1-c1ccccc1F` [Example 675], the IC50 is less than 100 nM.

As to `COc1cc(C(=O)N[C@@H](CC(=O)O)c2ccccc2Cl)nn1-c1ccccc1F` [Example 676], the half-maximal inhibitory concentration (IC50) is less than 100 nM.

For the compound `COc1cc(C(=O)NC(CC(=O)O)c2ccc(F)cc2C)nn1-c1ccccc1F` (stereo not drawn) [Example 677], the IC50 was less than 100 nM.

For `COc1cc(C(=O)NC(CC(=O)O)c2ccc(F)cc2)nn1-c1ccccc1F` (stereo not drawn) [Example 678], the IC50 was in the range of 100 to 1000 nM.

As to `COc1cc(C(=O)N[C@@H](CC(=O)O)c2ccccc2F)nn1-c1ccccc1F` [Example 679], the IC50 lay within 100 to 1000 nM.

Consider `COc1cc(C(=O)N[C@@H](CC(=O)O)c2ccccc2C(F)(F)F)nn1-c1ccccc1F` [Example 680, (S)-3-{[1-(2-Fluoro-phenyl)-5-methoxy-1H-pyrazole-3-carbonyl]-amino}-3-(2-trifluoromethyl-phenyl)-propionic acid], for which the IC50 was in the range of 100 to 1000 nM.

Take `COc1cc(C(=O)N[C@@H](CC(=O)O)c2cccc(Cl)c2Cl)nn1-c1ccccc1F` [Example 681]: the IC50 was less than 100 nM.

Take `COc1cc(C(=O)NC(CC(=O)O)c2cccc(C)c2C)nn1-c1ccccc1F` (stereo not drawn) [Example 682, 3-(2,3-Dimethyl-phenyl)-3-{[1-(2-fluoro-phenyl)-5-methoxy-1H-pyrazole-3-carbonyl]-amino}-propionic acid]: the IC50 was less than 100 nM.

`COc1cc(C(=O)NC(CC(=O)O)c2cc(Cl)ccc2Cl)nn1-c1ccccc1F` (stereo not drawn) [Example 683]: the IC50 was less than 100 nM.

With `Cc1c(F)cccc1C(CC(=O)O)NC(=O)c1cc(OCC2CC2)n(-c2ccccc2F)n1` (stereo not drawn) [Example 684, 3-{[5-Cyclopropylmethoxy-1-(2-fluoro-phenyl)-1H-pyrazole-3-carbonyl]-amino}-3-(3-fluoro-2-methyl-phenyl)-propionic acid], the IC50 was less than 100 nM.

On to `O=C(O)C[C@H](NC(=O)c1cc(OCC2CC2)n(-c2ccccc2F)n1)c1ccccc1` [Example 685], for which the IC50 is less than 100 nM.

Consider `Cc1ccc(C(CC(=O)O)NC(=O)c2cc(OCC3CC3)n(-c3ccccc3F)n2)c(C)c1` (stereo not drawn) [Example 686], for which the half-inhibitory concentration (IC50) is less than 100 nM.

Consider `COc1ccccc1[C@H](CC(=O)O)NC(=O)c1cc(OCC2CC2)n(-c2ccccc2F)n1` [Example 687], for which the IC50 was 100 to 1000 nM.

In the case of `N#Cc1ccc([C@H](CC(=O)O)NC(=O)c2cc(OCC3CC3)n(-c3ccccc3F)n2)cc1` [Example 688], the IC50 was less than 100 nM.

For the compound `COc1cccc([C@H](CC(=O)O)NC(=O)c2cc(OCC3CC3)n(-c3ccccc3F)n2)c1` [Example 689], the IC50 lay in the range of 100 to 1000 nM.

For `Cc1cccc([C@H](CC(=O)O)NC(=O)c2cc(OCC3CC3)n(-c3ccccc3F)n2)c1` [Example 690, (S)-3-{[5-Cyclopropylmethoxy-1-(2-fluoro-phenyl)-1H-pyrazole-3-carbonyl]-amino}-3-m-tolyl-propionic acid], the 50% inhibitory concentration (IC50) was less than 100 nM.

For the compound `O=C(O)C[C@H](NC(=O)c1cc(OCC2CC2)n(-c2ccccc2F)n1)c1ccc(Cl)cc1` [Example 691], the IC50 was 100 to 1000 nM.

Take `COc1ccc(C(CC(=O)O)NC(=O)c2cc(OCC3CC3)n(-c3ccccc3F)n2)c(C)c1` (stereo not drawn) [Example 692]: the concentration for half-maximal inhibition (IC50) is less than 100 nM.

Turning to `O=C(O)C[C@H](NC(=O)c1cc(OCC2CC2)n(-c2ccccc2F)n1)c1ccc(Cl)cc1Cl` [Example 693], the IC50 is 100 to 1000 nM.

For the compound `O=C(O)C[C@H](NC(=O)c1cc(OCC2CC2)n(-c2ccccc2F)n1)c1ccc(C(F)(F)F)cc1` [Example 694], the IC50 was less than 100 nM.

In the case of `Cc1ccc([C@H](CC(=O)O)NC(=O)c2cc(OCC3CC3)n(-c3ccccc3F)n2)cc1` [Example 695], the IC50 was less than 100 nM.

As to `O=C(O)C[C@H](NC(=O)c1cc(OCC2CC2)n(-c2ccccc2F)n1)c1ccccc1Cl` [Example 696], the IC50 is less than 100 nM.

`O=C(O)CC(NC(=O)c1cc(OCC2CC2)n(-c2ccccc2F)n1)c1ccc(F)cc1` (stereo not drawn) [Example 698]: the IC50 was in the range of 100 to 1000 nM.

In the case of `O=C(O)C[C@H](NC(=O)c1cc(OCC2CC2)n(-c2ccccc2F)n1)c1ccccc1F` [Example 699], the IC50 lay in the range of 100 to 1000 nM.

A word on the IC50: it is the midpoint of a concentration-inhibition curve.

The record behind these values is patent publication US8664257B2, “Oxygen-substituted 3-heteroaroylamino-propionic acid derivatives and their use as pharmaceuticals” (Sanofi, priority 2010, dated 2014).
